Laboratory results from US20240239755A1, “SUBSTITUTED PYRIDAZINONES, SALTS OR N-OXIDES THEREOF AND THEIR USE AS HERBICIDALLY ACTIVE SUBSTANCES” (Bayer Aktiengesellschaft, priority 2021, published 2024).

Experiments:
Assay type in all cases: in vivo
[1] = tested on: Digitaria sanguinalis (DIGSA); test: Herbicidal post-emergence action, 1280 g/ha (Table B2); conditions: visual assessment after ca. 3 weeks vs untreated controls
Source text: (§1) Seeds of mono- and dicotyledonous weed plants were sown in plastic pots (double sowings with one species of mono- and one species of dicotyledonous weed plants per pot), in sandy loam, covered with soil and grown under controlled growth conditions. 2 to 3 weeks after sowing, the test plants were sprayed in the single-leaf stage. The compounds according to the invention, formulated in the form of wettable powders (WP) or as emulsifiable concentrates (EC), were sprayed onto the green plant parts as an aqueous suspension or as an emulsion, with the addition of 0.5% of an additive, at an application rate of 600 litres of water per hectare (converted). The test plants were placed in the greenhouse for ca. 3 weeks under optimum growth conditions, and then the effect of the preparations was assessed visually in comparison with untreated controls (herbicidal effect in percent (%): 100% effect=plants have died, 0% effect=as control plants). Tables B1 to B11 below, show the effects of selected compounds of the general formula (I) according to Table 1 on various harmful plants using an application rate corresponding to 1280 g/ha obtained by the experimental procedure mentioned above.

[2] = tested on: Amaranthus retroflexus (AMARE); test: Herbicidal post-emergence action, 1280 g/ha, AMARE; conditions: visual grading vs untreated controls
Procedure, shortened: (§2)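 Pot-grown weeds in sandy loam sprayed post-emergence at the single-leaf stage, 2–3 weeks after sowing, with WP or EC formulations plus 0.5% additive in 600 L water/ha at 1280 g/ha. After ca. 3 weeks in the greenhouse, damage scored visually as % effect versus untreated controls (100% = plants dead).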

[3] = tested on: Lolium rigidum (LOLRI); test: Herbicidal pre-emergence action, 1280 g/ha (Table A5); conditions: visual grading after ca. 3 weeks vs untreated controls
Procedure, shortened: (§3)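 Percent herbicidal effect was scored visually about 3 weeks after treatment relative to untreated pots, where 100% means dead plants and 0% equals control. Compounds (WP or EC) were sprayed onto covering soil of sown sandy loam pots in water containing 0.5% additive at 600 L/ha.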

[4] = tested on: Amaranthus retroflexus (AMARE); test: Herbicidal pre-emergence action, 1280 g/ha (Table A11); conditions: visual grading after ca. 3 weeks vs untreated controls
Procedure, shortened: as §3

[5] = tested on: Lolium rigidum (LOLRI); test: Herbicidal pre-emergence action, 320 g/ha (Table C2); conditions: visual grading after ca. 3 weeks vs untreated controls
Procedure, shortened: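 Applied pre-emergence to the surface of soil covering weed seeds sown in sandy loam, as WP or EC formulations in water with 0.5% additive at 600 L/ha. Greenhouse-grown; damage graded visually at ca. 3 weeks as percent of untreated controls (100% = plants died).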

[6] = tested on: Matricaria inodora (MATIN); test: Herbicidal post-emergence action, 1280 g/ha (Table B6); conditions: visual assessment after ca. 3 weeks vs untreated controls
Procedure, shortened: (§4)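 Post-emergence greenhouse pot test: weeds in sandy loam sprayed at single-leaf stage, 2–3 weeks after sowing, with WP or EC formulations plus 0.5% additive at 600 L water/ha. Effect scored visually ca. 3 weeks later versus untreated controls, 0% = as control, 100% = plants dead.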

[7] = tested on: Stellaria media (STEME); test: Herbicidal post-emergence action, 320 g/ha, STEME; conditions: visual grading after ca. 3 weeks
Procedure, shortened: (§5)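 Visual herbicidal effect (%) relative to untreated plants, scored about 3 weeks after treatment; 100% means dead plants. Plants in sandy loam were sprayed at the single-leaf stage with formulated compound plus 0.5% additive in 600 litres water per hectare.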

[8] = tested on: Veronica persica (VERPE); test: Herbicidal pre-emergence action, 1280 g/ha (Table A10); conditions: visual grading after ca. 3 weeks vs untreated controls
Source text: (§6) Seeds of mono- and dicotyledonous weed plants were sown in plastic pots (double sowings with one species of mono- and one species of dicotyledonous weed plants per pot), in sandy loam, and covered with soil. The compounds according to the invention, formulated in the form of wettable powders (WP) or as emulsifiable concentrates (EC), were applied to the surface of the covering soil as an aqueous suspension or as an emulsion, with the addition of 0.5% of an additive, at an application rate of 600 litres of water per hectare (converted). Following treatment, the pots were placed in a greenhouse and kept under optimum growth conditions for the test plants. The visual grading of the damage to the test plants was carried out after ca. 3 weeks in comparison to untreated controls (herbicidal effect in percent (%): 100% effect=plants have died, 0% effect=as control plants). Tables A1 to A11 below, show the effects of selected compounds of the general formula (I) according to Table 1 on various harmful plants and an application rate corresponding to 1280 g/ha obtained by the experimental procedure mentioned above.

[9] = tested on: Stellaria media (STEME); test: Herbicidal post-emergence action, 1280 g/ha (Table B9); conditions: visual assessment after ca. 3 weeks vs untreated controls
Procedure, shortened: as §4

[10] = tested on: Matricaria inodora (MATIN); test: Herbicidal pre-emergence action, 1280 g/ha (Table A6); conditions: visual grading after ca. 3 weeks vs untreated controls
Procedure, shortened: as §3

[11] = tested on: Amaranthus retroflexus (AMARE); test: Herbicidal post-emergence action, 320 g/ha, AMARE; conditions: visual grading after ca. 3 weeks
Procedure, shortened: as §5

[12] = tested on: Abutilon theophrasti (ABUTH); test: Herbicidal post-emergence action, 1280 g/ha (Table B1); conditions: visual assessment after ca. 3 weeks vs untreated controls
Procedure, shortened: as §4

[13] = tested on: Lolium rigidum (LOLRI); test: Herbicidal post-emergence action, 320 g/ha, LOLRI; conditions: visual grading after ca. 3 weeks
Procedure, shortened: as §5

[14] = tested on: Lolium rigidum (LOLRI); test: Herbicidal post-emergence action, 1280 g/ha (Table B5); conditions: visual assessment after ca. 3 weeks vs untreated controls
Procedure, shortened: as §4

[15] = tested on: Stellaria media (STEME); test: Herbicidal pre-emergence action, 1280 g/ha (Table A9); conditions: visual grading after ca. 3 weeks vs untreated controls
Procedure, shortened: as §3

[16] = tested on: Stellaria media (STEME); test: Herbicidal pre-emergence action, 320 g/ha, STEME; conditions: visual grading after ca. 3 weeks
Procedure, shortened: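 Weed seeds sown in sandy loam pots; WP or EC formulations applied pre-emergence to the covering soil surface at 320 g/ha with 0.5% additive in 600 L water/ha. Greenhouse growth; visual damage scored after ca. 3 weeks versus untreated controls (100% = plants died, 0% = as control).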

[17] = tested on: Amaranthus retroflexus (AMARE); test: Herbicidal pre-emergence action, 320 g/ha, AMARE; conditions: visual grading after ca. 3 weeks
Source text: as §6, with “plants).” for “plants). Tables A1 to A11 below, show the effects of selected compounds of the general formula (I) according to Table 1 on various harmful plants and an application rate corresponding to 1280 g/ha obtained by the experimental procedure mentioned above.”
Tables C1 to C6 below, show the effects of selected compounds of the general formula (I) according to Table 1 on various harmful plants using an application rate corresponding to 320 g/ha obtained by the experimental procedure mentioned above.

[18] = tested on: Abutilon theophrasti (ABUTH); test: Herbicidal pre-emergence action, 1280 g/ha (Table A1); conditions: visual grading after ca. 3 weeks vs untreated controls
Procedure, shortened: as §3

[19] = tested on: Matricaria inodora (MATIN); test: Herbicidal pre-emergence action, 320 g/ha (Table C3); conditions: visual grading after ca. 3 weeks vs untreated controls
Source text: as §6, with “Tables C1” for “Tables A1”, “to C6” for “to A11”, “plants using” for “plants and”, “to 320” for “to 1280”

[20] = tested on: Kochia scoparia (KCHSC); test: Herbicidal post-emergence action, 1280 g/ha (Table B4); conditions: visual assessment after ca. 3 weeks vs untreated controls
Procedure, shortened: as §4

[21] = tested on: Setaria viridis (SETVI); test: Herbicidal pre-emergence action, 1280 g/ha (Table A8); conditions: visual grading after ca. 3 weeks vs untreated controls
Procedure, shortened: as §3

[22] = tested on: Veronica persica (VERPE); test: Herbicidal post-emergence action, 1280 g/ha, VERPE; conditions: visual grading vs untreated controls
Procedure, shortened: as §2

[23] = tested on: Abutilon theophrasti (ABUTH); test: Herbicidal post-emergence action, 320 g/ha, ABUTH; conditions: visual grading after ca. 3 weeks
Procedure, shortened: as §5

[24] = tested on: Echinochloa crus-galli (ECHCG); test: Herbicidal post-emergence action, 1280 g/ha (Table B3); conditions: visual assessment after ca. 3 weeks vs untreated controls
Source text: as §1

[25] = tested on: Setaria viridis (SETVI); test: Herbicidal post-emergence action, 1280 g/ha (Table B8); conditions: visual assessment after ca. 3 weeks vs untreated controls
Procedure, shortened: as §4

[26] = tested on: Matricaria inodora (MATIN); test: Herbicidal post-emergence action, 320 g/ha, MATIN; conditions: visual grading after ca. 3 weeks
Procedure, shortened: as §5

[27] = tested on: Poa annua (POAAN); test: Herbicidal pre-emergence action, 1280 g/ha (Table A7); conditions: visual grading after ca. 3 weeks vs untreated controls
Procedure, shortened: as §3

[28] = tested on: Veronica persica (VERPE); test: Herbicidal post-emergence action, 320 g/ha, VERPE; conditions: visual grading after ca. 3 weeks
Procedure, shortened: as §5

[29] = tested on: Kochia scoparia (KCHSC); test: Herbicidal pre-emergence action, 1280 g/ha (Table A4); conditions: visual grading after ca. 3 weeks vs untreated controls
Procedure, shortened: as §3

Structure (SMILES)	herbicidal effect DIGSA [1] [%]	herbicidal effect AMARE [2] [%]	herbicidal effect LOLRI [3] [%]	herbicidal effect AMARE [4] [%]	herbicidal effect LOLRI [5] [%]	herbicidal effect MATIN [6] [%]	herbicidal effect STEME [7] [%]	herbicidal effect STEME [9] [%]	herbicidal effect MATIN [10] [%]	herbicidal effect AMARE [11] [%]	herbicidal effect ABUTH [12] [%]	herbicidal effect LOLRI [14] [%]	herbicidal effect STEME [15] [%]	herbicidal effect STEME [16] [%]	herbicidal effect MATIN [19] [%]	herbicidal effect KCHSC [20] [%]	herbicidal effect VERPE [22] [%]	herbicidal effect ABUTH [23] [%]	other results
Cc1nn(C)c(=O)c(Oc2ccc(F)c(Cl)n2)c1O [Example I-052]	90	–	–	–	–	–	–	–	–	–	–	–	–	–	–	–	–	–	–
CCOC(=O)Oc1c(C)nn(C)c(=O)c1Oc1cc(Cl)ccc1Cl [Example I-086]	–	100	100	90	90	90	90	100	100	90	90	100	100	–	–	–	–	–	herbicidal effect VERPE [8]: 90%; herbicidal effect LOLRI [13]: 90%
Cc1nn(C)c(=O)c(Oc2cc(Cl)ccc2Br)c1O [Example I-091]	–	–	100	100	100	–	90	90	100	–	–	90	100	100	90	–	–	–	herbicidal effect AMARE [17]: 90%; herbicidal effect ABUTH [18]: 90%
Cc1nn(C)c(=O)c(Oc2ccc(Br)cc2)c1O [Example I-068]	90	–	–	90	–	–	–	–	–	–	–	–	–	–	–	90	90	–	herbicidal effect SETVI [21]: 90%
CCOC(=O)Oc1c(C)nn(C)c(=O)c1Oc1ccc(F)cc1C1CC1 [Example I-034]	90	100	100	90	–	90	90	90	100	90	90	90	–	–	–	90	90	90	herbicidal effect ECHCG [24]: 90%; herbicidal effect SETVI [25]: 90%
Cc1nn(C)c(=O)c(Oc2cc(F)ccc2Br)c1O [Example I-026]	–	100	100	100	90	100	–	90	100	90	100	–	100	100	90	90	90	90	herbicidal effect MATIN [26]: 90%; herbicidal effect POAAN [27]: 90%; herbicidal effect VERPE [28]: 90%; herbicidal effect KCHSC [29]: 90%
